In ChEMBL document CHEMBL1201862, “PubChem BioAssay data set” (2004):
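Test compounds were applied to cells in 96-well plates for 48 hours at 5 doses. The concentration for 50% growth inhibition is given as GI50.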 Activity calls are given as the source filed them. Cut-off read from the data, not from the text of the source: active = GI50 up to about 1.1 µM and inactive = higher.

Columns and labels:
Assay in all cases: inhibition of tumour cell growth, NCI panel, 48 h
[1] = system: CAKI-1
[2] = system: DLD-1
[3] = system: HCT-15
[4] = system: HL-60
[5] = system: HOP-62
[6] = system: M19-MEL
[7] = system: MCF7
[8] = system: Malme-3M
[9] = system: NCI-H460
[10] = system: OVCAR-4
[11] = system: OVCAR-5
[12] = system: SF-295
[13] = system: SK-MEL-28
[14] = system: SK-MEL-2
[15] = system: SN12C
[16] = system: U-251
[17] = system: UO-31
[18] = system: XF498
[19] = system: TK-10
[20] = system: DU-145

Row | Structure (SMILES) | GI50 [1] | GI50 [2] | GI50 [3] [µM] | GI50 [4] | GI50 [5] | GI50 [6] | GI50 [7] | GI50 [8] | GI50 [9] | GI50 [10] | GI50 [11] | GI50 [12] | GI50 [13] | GI50 [14] | GI50 [15] | GI50 [16] | GI50 [17] | GI50 [18] | GI50 [19] | GI50 [20]
1 | O=C(O)CCCCCCC[C@@H]1S[C@H]1CCCCCCO | > 100 µM (inactive) | > 100 µM (inactive) | > 100 | > 100 µM (inactive) | > 100 µM (inactive) | > 100 µM (inactive) | > 100 µM (inactive) | > 100 µM (inactive) | > 100 µM (inactive) | > 100 µM (inactive) | > 100 µM (inactive) | > 100 µM (inactive) | > 100 µM (inactive) | > 100 µM (inactive) | > 100 µM (inactive) | > 100 µM (inactive) | > 100 µM (inactive) | > 100 µM (inactive) | – | –
2 | CC(=O)Oc1c(OC(C)=O)c(-c2ccc(O)c(O)c2)c(O)c(O)c1-c1ccc(O)cc1 | > 100 µM (inactive) | > 100 µM (inactive) | > 100 | 54.2 µM (inactive) | > 100 µM (inactive) | 24.4 µM (inactive) | > 100 µM (inactive) | – | > 100 µM (inactive) | > 100 µM (inactive) | > 100 µM (inactive) | > 100 µM (inactive) | > 100 µM (inactive) | 29.4 µM (inactive) | > 100 µM (inactive) | > 100 µM (inactive) | > 100 µM (inactive) | 82.2 µM (inactive) | – | –
3 | CC(C)CC/N=c1/cc2n(-c3ccc(Cl)cc3)c3ccccc3nc-2cc1Nc1ccc(Cl)cc1 | 10.4 µM (inactive) | 1.97 µM (inactive) | 3.42 | 2.51 µM (inactive) | 8.71 µM (inactive) | 6.89 µM (inactive) | 5.36 µM (inactive) | 11.9 µM (inactive) | 4.92 µM (inactive) | 2.65 µM (inactive) | 12.4 µM (inactive) | 11.9 µM (inactive) | 15.6 µM (inactive) | 3.96 µM (inactive) | 9.27 µM (inactive) | 8.67 µM (inactive) | 5.56 µM (inactive) | 6.64 µM (inactive) | – | –
4 | N#Cc1cnsc1 | > 100 µM (inactive) | > 100 µM (inactive) | > 100 | > 100 µM (inactive) | > 100 µM (inactive) | > 100 µM (inactive) | – | > 100 µM (inactive) | > 100 µM (inactive) | > 100 µM (inactive) | > 100 µM (inactive) | > 100 µM (inactive) | > 100 µM (inactive) | > 100 µM (inactive) | > 100 µM (inactive) | > 100 µM (inactive) | > 100 µM (inactive) | > 100 µM (inactive) | > 100 µM (inactive) | –
5 | C[C@]12CCC(=O)C=C1CC[C@@H]1[C@@H]2[C@@H](O)C[C@@]2(C)[C@H]1CC[C@]2(O)C(=O)COC(=O)COCC(=O)O | > 100 µM (inactive) | > 100 µM (inactive) | > 100 | > 100 µM (inactive) | > 100 µM (inactive) | > 100 µM (inactive) | – | > 100 µM (inactive) | > 100 µM (inactive) | > 100 µM (inactive) | > 100 µM (inactive) | > 100 µM (inactive) | > 100 µM (inactive) | > 100 µM (inactive) | > 100 µM (inactive) | > 100 µM (inactive) | > 100 µM (inactive) | > 100 µM (inactive) | > 100 µM (inactive) | –
6 | O=C(CCBr)N1CCN(C(=O)CCBr)CC1 [PIPOBROMAN] | 47.9 µM (inactive) | 90.2 µM (inactive) | 83.8 | 13.7 µM (inactive) | 60.3 µM (inactive) | 86.9 µM (inactive) | 52.4 µM (inactive) | 101 µM (inactive) | 11.9 µM (inactive) | 86.9 µM (inactive) | 103 µM (inactive) | 57.3 µM (inactive) | 99.8 µM (inactive) | 107 µM (inactive) | 42.6 µM (inactive) | 55 µM (inactive) | 120 µM (inactive) | 66.7 µM (inactive) | 244 µM (inactive) | 64.6 µM (inactive)
7 | CCCCCCCCCCCCCCC(O)C1CCC(C(O)CCC(O)CCCCCC(O)CC2=CC(C)OC2=O)O1 (stereo unspecified) | 8.13 µM (inactive) | 2.31 µM (inactive) | 1.29 | 0.0117 µM (active) | 1.55 µM (inactive) | 2 µM (inactive) | – | 1.58 µM (inactive) | 1.79 µM (inactive) | 0.013 µM (active) | 4.4 µM (inactive) | 1.26 µM (inactive) | 1.93 µM (inactive) | 2.54 µM (inactive) | 1.24 µM (inactive) | 2.74 µM (inactive) | 0.0604 µM (active) | 1.12 µM (active) | 4.27 µM (inactive) | –
8 | CCCCCCCCCCNC1CC(OC2CC(O)(C(O)CO)Cc3c(O)c4c(c(O)c32)C(=O)c2c(OC)cccc2C4=O)OC(C)C1O (stereo unspecified) | 1.68 µM (inactive) | 1.13 µM (inactive) | 1.56 | 0.434 µM (active) | 1.66 µM (inactive) | 1.65 µM (inactive) | 1.01 µM (active) | 1.94 µM (inactive) | 0.601 µM (active) | 1.53 µM (inactive) | 1.8 µM (inactive) | 1.9 µM (inactive) | 1.76 µM (inactive) | 1.4 µM (inactive) | 1.65 µM (inactive) | 0.986 µM (active) | 1.77 µM (inactive) | 1.91 µM (inactive) | 4.44 µM (inactive) | 1.79 µM (inactive)
9 | COc1c2ccoc2c(S(=O)(=O)Nc2ccc(Cl)cc2)c2oc(C)cc(=O)c12 | > 34.9 µM (inactive) | > 100 µM (inactive) | > 100 | 23.9 µM (inactive) | > 89.5 µM (inactive) | > 100 µM (inactive) | 51.9 µM (inactive) | 96.6 µM (inactive) | > 100 µM (inactive) | 32.5 µM (inactive) | > 100 µM (inactive) | > 89.7 µM (inactive) | > 100 µM (inactive) | > 76.2 µM (inactive) | > 83.4 µM (inactive) | > 100 µM (inactive) | > 50.9 µM (inactive) | > 85.1 µM (inactive) | – | –
10 | COC(=O)/C=C\C1C(C(=O)OC)C2(C(=O)OC)CCC1(C(=O)OC)N2 (stereo unspecified) | 2.88 µM (inactive) | 3.25 µM (inactive) | 3.33 | 2.51 µM (inactive) | 18.1 µM (inactive) | 14.7 µM (inactive) | – | 5.98 µM (inactive) | 21.6 µM (inactive) | 19.1 µM (inactive) | 20 µM (inactive) | 23.4 µM (inactive) | 13.6 µM (inactive) | 15.5 µM (inactive) | 16.3 µM (inactive) | 18.5 µM (inactive) | 17 µM (inactive) | 19.1 µM (inactive) | 4.47 µM (inactive) | –
11 | Cn1c(=O)nc2n(-c3ccc(O)cc3)c3ccccc3nc-2c1=O | 13.7 µM (inactive) | > 100 µM (inactive) | > 100 | > 100 µM (inactive) | 55.8 µM (inactive) | 20 µM (inactive) | – | 18.9 µM (inactive) | 11 µM (inactive) | > 100 µM (inactive) | > 100 µM (inactive) | > 100 µM (inactive) | > 100 µM (inactive) | 82.2 µM (inactive) | > 100 µM (inactive) | 14 µM (inactive) | > 100 µM (inactive) | 60 µM (inactive) | > 100 µM (inactive) | –
